# According to patent US20100248390A1, “COMPOSITIONS AND METHODS FOR IDENTIFYING LIGANDS OF ODORANT RECEPTORS” (DUKE UNIVERSITY, priority 2009, published 2010):
# Counter-ions that a name gives are not always drawn. Like-named read-outs stand apart in the source and are kept apart here.
# Columns and labels:
# Test in all cases: CRE-luciferase assay of odorant receptor activation (Dual-Glo, Hana3A cells, RTP1S), dose-response EC50
# Format in all cases: cell-based
# [1] = test system: mouse odorant receptors (ORs); conditions: for log EC50 (Table 4 value), MOR258-17: receptor MOR258-17; for log EC50 (Table 4 value), MOR271-1 / log EC50, MOR271-1: receptor MOR271-1; for log EC50 (Table 4 value), MOR273-1: receptor MOR273-1; for log EC50 (Table 4 value), MOR5-1: receptor MOR5-1
# Excerpt: (§1) Cloning mouse and human ORs. […] OR open reading frames were amplified from genomic DNA using proofreading KOD DNA polymerase (Toyobo/Novagen) and subcloned into pCI expression vectors (Promega) containing the first 20 residues of human rhodopsin (Rho tag). The sequences of the cloned receptors were verified by sequencing (3100 Genetic Analyzer, ABI Biosystems). Immunocytochemistry and FACS analysis. […] For FACS analysis, phycoerythrin (PE)-conjugated anti-mouse IgG (Jackson Immunologicals) was used. In order to monitor the transfection efficiency, Green Fluorescent Protein (GFP) was co-transfected with the OR. The intensity of receptor cell surface expression was calculated as the ratio of PE and GFP expression. 7-aminoactinomycin D (Calbiochem) was added before flow cytometry to mark dead cells which were excluded from the analysis. The gate and mean of PE positive cells was normalized by GFP values. Luciferase assay. […] Odorant receptor activation leads to an increase in intracellular cAMP; CRE-luciferase (Stratagene) was used to measure this change. […] Hana3A cells were plated on poly-D-lysine-coated 96-well plates (BioCoat; Becton Dickinson). […] For each 96-well plate transfected, 1 μg of CRE-Luc, 1 μg of pRL-SV40, 5 μg of odorant receptor plasmid, and 1 μg of RTP1S was used. Approximately 24 hours post transfection, the medium was replaced with CD293 chemically defined medium (Gibco) and the plate was incubed for 30 min at 37° C. The medium was then replaced with 25 μL of odorant solution diluted in CD293 and the plate was incubated for 4 hrs at 37° C. and 5% CO2. The manufacturer's protocols for measuring luciferase and Renilla luciferase activities was followed. […] All luminescence values were divided by the Renilla Luciferase activity to control for transfection efficiency in a given well. Normalized luciferase activity was calculated using the formula (LN−Lmin)/(Lmax−Lmin), where LN is the luminescence of firefly luciferase in response to the odorant, Lmin is the minimum luciferase value on a plate or set of plates, and Lmax is the maximum luciferase value on a plate or set of plates. The data was analyzed using Microsoft Excel and GraphPad Prism 4. Screening procedure. The entire OR library was stimulated with eight separate odorant mixtures formed from 93 odorants (FIG. 12). […] A comparison between the 93 individual odorants at a 100 μM dose and a no-odor control was performed for all 290 […]. Each comparison was performed in triplicate; statistical significance was assessed by t-test (uncorrected for multiple comparisons). […] A single odorant was used on each plate to avoid cross-contamination, and each OR odorant dose was tested at least three times. The data was fit to a sigmoidal curve. […] Physicochemical descriptors. […] Receptor descriptors. […] Correlations between descriptors and responses. […] All odorants for which there were fewer than 3 responsive receptors were eliminated. For all remaining odorant pairs the Pearson correlation between EC50 vectors and the Euclidean distance between descriptor vectors was calculated. The Pearson correlation between these two sets of distances was then measured. Optimizing descriptors. […] In this method one begins with an empty set of descriptors. Each descriptor is combined with the previous set of descriptors and correlation values are computed for all of these candidate sets of descriptors. To reduce overfitting, the data is randomly divided into ten subsets and correlation values are computed for each leave-one out subset. The final correlation coefficient for each set of descriptors is the average of the correlation coefficients for each subset. The set with the best correlation coefficient then becomes the new set of descriptors and the process is repeated until the correlation coefficient increases by less than 0.004 in three consecutive iterations.
# [2] = target: T1, human odorant receptors (ORs) (Homo sapiens, UniProt Q9Y3N9); conditions: receptor OR2W1
# T1 construct: OR open reading frames were amplified from genomic DNA; expressed in transfected cells; host or cells: Hana3A cells, co-transfected with RTP1S, CRE-luciferase and pRL-SV40
# T1 sequence (Q9Y3N9 1-320): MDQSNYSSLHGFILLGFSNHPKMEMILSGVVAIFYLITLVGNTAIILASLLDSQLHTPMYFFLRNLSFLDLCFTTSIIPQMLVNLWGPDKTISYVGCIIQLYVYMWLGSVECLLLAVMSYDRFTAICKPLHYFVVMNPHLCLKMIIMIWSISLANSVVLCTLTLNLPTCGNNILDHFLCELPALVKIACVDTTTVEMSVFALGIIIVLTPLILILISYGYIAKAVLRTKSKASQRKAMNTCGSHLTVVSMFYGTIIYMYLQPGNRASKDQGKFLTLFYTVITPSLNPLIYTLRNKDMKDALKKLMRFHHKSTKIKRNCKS
# Excerpt: as §1, with “For all remaining odorant pairs the Pearson correlation between EC50 vectors and the Euclidean distance between descriptor vectors was calculated.” left out, “subset.” for “subset. The set with the best correlation coefficient then becomes the new set of descriptors and the process is repeated until the correlation coefficient increases by less than 0.004 in three consecutive iterations.”
# (§2) The entire OR library was stimulated with one of 8 odorant mixtures drawn from 93 odorants chosen to represent diverse functional groups, sizes, and structures (Table 3). Each mixture was applied at five different concentrations. […] The 93 odorants were then applied individually at 100 μM to the 290 mixture-responsive ORs.
# [3] = target: T2, human odorant receptors (ORs) (Homo sapiens, UniProt Q9P1Q5); conditions: receptor OR1A1; read-out: log EC50 (Table 4 value), OR1A1 (converted)
# T2 construct: OR open reading frames were amplified from genomic DNA; expressed in transfected cells; host or cells: Hana3A cells, co-transfected with RTP1S, CRE-luciferase and pRL-SV40
# T2 sequence (Q9P1Q5 1-309): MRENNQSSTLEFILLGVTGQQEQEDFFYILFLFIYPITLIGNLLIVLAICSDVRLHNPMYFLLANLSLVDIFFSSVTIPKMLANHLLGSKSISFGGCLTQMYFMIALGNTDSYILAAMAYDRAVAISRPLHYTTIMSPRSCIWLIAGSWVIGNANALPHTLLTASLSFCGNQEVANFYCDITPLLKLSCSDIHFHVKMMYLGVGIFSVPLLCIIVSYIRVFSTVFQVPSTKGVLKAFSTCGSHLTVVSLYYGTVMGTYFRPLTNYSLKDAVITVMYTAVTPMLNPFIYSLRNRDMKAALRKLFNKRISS
# Excerpt: as §1, with “For all remaining odorant pairs the Pearson correlation between EC50 vectors and the Euclidean distance between descriptor vectors was calculated.” left out, “subset.” for “subset. The set with the best correlation coefficient then becomes the new set of descriptors and the process is repeated until the correlation coefficient increases by less than 0.004 in three consecutive iterations.”
# as §2
# [4] = read-out: log EC50 (Table 4 value), OR2W1 (converted)
# [5] = read-out: log EC50 of odorant at OR2W1 (0 = no response) (converted)
smiles,measurement,setting,value
O=C1CCCCC1 [Cyclohexanone],"log EC50 (Table 4 value), MOR41-1",[1]; receptor MOR41-1,−3.456
same,"log EC50 (Table 4 value), MOR136-1",[1]; receptor MOR136-1,−3.065
same,"log EC50 (Table 4 value), MOR139-1",[1]; receptor MOR139-1,−3.138
same,"log EC50 (Table 4 value), MOR185-1",[1]; receptor MOR185-1,−3.594
same,"log EC50 (Table 4 value), MOR251-1",[1]; receptor MOR251-1,−3.193
same,"log EC50 (Table 4 value), MOR253-1",[1]; receptor MOR253-1,−3.219
same,"log EC50 (Table 4 value), MOR258-1",[1]; receptor MOR258-1,−3.824
same,"log EC50 (Table 4 value), MOR258-17",[1],−4.1
same,"log EC50 (Table 4 value), MOR271-1",[1],−3.463
same,"log EC50 (Table 4 value), MOR272-1",[1]; receptor MOR272-1,−3.254
same,"log EC50 (Table 4 value), MOR273-1",[1],−3.208
same,"log EC50 (Table 4 value), MOR277-1",[1]; receptor MOR277-1,−3.568
CCCCC(=O)O [Pentanoic acid],log EC50 of odorant at MOR1-1 (0 = no response),[1]; receptor MOR1-1,−4.813
CCCCCCCCCC(=O)O [Decanoic acid],"log EC50 (Table 4 value), MOR5-1",[1],−3.749
same,"log EC50 (Table 4 value), MOR25-1",[1]; receptor MOR25-1,−4.194
same,"log EC50 (Table 4 value), MOR30-1",[1]; receptor MOR30-1,−4.987
same,"log EC50 (Table 4 value), MOR33-1",[1]; receptor MOR33-1,−4.487
same,"log EC50 (Table 4 value), MOR37-1",[1]; receptor MOR37-1,−4.323
same,"log EC50 (Table 4 value), MOR40-1",[1]; receptor MOR40-1,−4.121
same,"log EC50 (Table 4 value), MOR203-1",[1]; receptor MOR203-1,−3.751
same,"log EC50 (Table 4 value), MOR258-17",[1],−4.627
same,"log EC50 (Table 4 value), MOR260-1",[1]; receptor MOR260-1,−3.542
same,EC50,[2]; [4],175 µM
CCCC(C)=O [2-Penonone],"log EC50, MOR271-1",[1]; 0 = no response,−5.111
CCCCCCCCCC=O [Daconal],"log EC50 (Table 4 value), MOR30-1",[1]; receptor MOR30-1,−4.033
same,"log EC50 (Table 4 value), MOR37-1",[1]; receptor MOR37-1,−3.477
c1ccccc1 [Benzene],"log EC50 (Table 4 value), MOR271-1",[1],−4.005
O=c1cc(O)c2ccccc2o1 [4-Hydroxycoumarin],"log EC50 (Table 4 value), MOR41-1",[1]; receptor MOR41-1,−4.344
CCCCCO [1-Pentanol],"log EC50, MOR41-1","[1]; receptor MOR41-1, 0 = no response",−3.537
C=CCOC(=O)CCCCCC [Allyl heptanoate],EC50,[3],475 µM
CCCCCCCCC=O [Nonanal],log EC50 of odorant at MOR30-1 (0 = no response),[1]; receptor MOR30-1,−3.914
same,log EC50 of odorant at MOR33-1 (0 = no response),[1]; receptor MOR33-1,−3.234
same,log EC50 of odorant at MOR37-1 (0 = no response),[1]; receptor MOR37-1,−3.295
same,log EC50 of odorant at MOR40-1 (0 = no response),[1]; receptor MOR40-1,−3.194
same,EC50,[2]; [5],252 µM
CCCCCCC(=O)O [Heptanoic acid],"log EC50 (Table 4 value), MOR1-1",[1]; receptor MOR1-1,−3.823
same,"log EC50 (Table 4 value), MOR5-1",[1],−3.583
same,"log EC50 (Table 4 value), MOR23-1",[1]; receptor MOR23-1,−4.856
same,"log EC50 (Table 4 value), MOR30-1",[1]; receptor MOR30-1,−3.575
same,"log EC50 (Table 4 value), MOR31-1",[1]; receptor MOR31-1,−5.2
same,"log EC50 (Table 4 value), MOR33-1",[1]; receptor MOR33-1,−4.148
"CCC(C(=O)O)c1ccccc1 (single isomer, unassigned; (-)) [(−)-2-Phenylbutric acid]","log EC50, MOR2-1","[1]; receptor MOR2-1, 0 = no response",−2.982
COc1cc(C(=O)O)ccc1O [Vanillic acid],log EC50 of odorant at MOR9-1 (0 = no response),[1]; receptor MOR9-1,−6.334
same,log EC50 of odorant at MOR15-1 (0 = no response),[1]; receptor MOR15-1,−3.587
CCCCCCOC(C)=O [Hexyl acetate],EC50,[2]; [5],13.7 µM
CCCCC(C)=O [2-Hexanone],"log EC50, MOR271-1",[1]; 0 = no response,−4.936
same,"log EC50, MOR272-1","[1]; receptor MOR272-1, 0 = no response",−4.251
same,EC50,"[2]; 0 = no response, read-out: log EC50, OR2W1 (converted)",73.3 µM
CCCCCCCC=O [Octanal],EC50,[2]; [5],43.6 µM
CCCCOC=O [Butyl formate],EC50,[2]; [4],37.4 µM
CCCCCCO [Hexanol],"log EC50 (Table 4 value), MOR1-1",[1]; receptor MOR1-1,−3.987
same,"log EC50 (Table 4 value), MOR4-1",[1]; receptor MOR4-1,−3.231
same,"log EC50 (Table 4 value), MOR271-1",[1],−3.322
same,"log EC50 (Table 4 value), OR2W1",[2],−5.102
CCCCCCC=O [Heptonal],"log EC50 (Table 4 value), OR2W1",[2],−4.056
CCOC(=O)C(C)C [Ethyl isobutyrate],"log EC50 (Table 4 value), MOR271-1",[1],−4.077
same,"log EC50 (Table 4 value), MOR272-1",[1]; receptor MOR272-1,−5.25
same,"log EC50 (Table 4 value), MOR273-1",[1],−5.761
CCCCCOC(=O)CCCCC [Amyl hexanote],"log EC50 (Table 4 value), MOR258-17",[1],−4.462
CC12CCC(CC1=O)C2(C)C (stereo not drawn) [(−)-Camphor],"log EC50, MOR107-1","[1]; receptor MOR107-1, 0 = no response",−3.704
same,"log EC50, MOR128-2","[1]; receptor MOR128-2, 0 = no response",−4.373
same,"log EC50, MOR138-1","[1]; receptor MOR138-1, 0 = no response",−4.952
same,"log EC50, MOR139-1","[1]; receptor MOR139-1, 0 = no response",−3.902
same,"log EC50, MOR189-1","[1]; receptor MOR189-1, 0 = no response",−4.839
same,"log EC50, MOR277-1","[1]; receptor MOR277-1, 0 = no response",−3.861
